Experimental findings from patent US5817692A, “Endoperoxides useful as antiparasitic agents” (priority 1996, dated 1998) are described below.

One assay deals with Plasmodium falciparum. In words: antimalarial activity, tritiated-hypoxanthine incorporation assay in human red blood cells. To be noted: Erythrocyte, read-out: IC50 (inhibition of 50% of the replication of Plasmodium falciparum). The class given is cell-based. The method, then: (§1) The protozoan Plasmodium falciparum is a causative agent of malaria, the single most critical infectious disease of mankind. The antimalarial activity of the endoperoxides was determined according to the method of Desjardins et al. (16) as modified by Milhous et al. (17). Briefly, the antimalarial activity of the endoperoxides was tested in a tritiated-hypoxanthine incorporation assay by determining the concentration of the test compound needed to inhibit 50% of the replication of Plasmodium falciparum (IC50) in human red blood cells.
It is particularly noted that JHU 2886 has an excellent therapeutic index (ratio of activity to toxicity). At 1 μM, JHU 2886 has a therapeutic index of 70/0, whereas at the same concentration artimisinin has a therapeutic index of 76/10 (7.6), and atovaquone has a therapeutic index of only 95/17 (5.6). […] The first two compounds are known while the following five are being disclosed for the first time. […] Compounds of this formula wherein Ar is p-FCH2 Ph or p-HOCH2 Ph and X is CH2 are also expected to be particularly useful. […]

The next assay relates to P. falciparum NF54. In words: antimalarial activity, P. falciparum NF54 parasites in vitro. The following applies: Plasmodium falciparum. The class given is cell-based. The method, then:
as §1
Tables 4 and 5 show the structures and antimalarial activities of unsaturated and saturated bicyclic [2.2.2] endoperoxides of the invention. Compounds of this formula wherein R and R' are identical are particularly preferred. It is expected that compounds wherein R and R' are selected from the groups [drawing 33] will be especially useful. […]

[1] abbreviates: P. falciparum NF54 parasites in vitro, read-out: Antimalarial Activity IC50.
[2] abbreviates: NF54, read-out: Antimalarial Activity IC50.

pIC50: −log10 of the molar value. Where two headings read alike, the source gives them in different places.

In the case of `C1=CC2(c3ccccc3)CCCC1(c1ccccc1)OO2`, in the assay with Plasmodium falciparum, the pIC50 is 6.82. Regarding `CC1(C)CC2(c3ccccc3)CCC(c3ccccc3)(C1)OO2` [Ar = Ph, X = C(CH3)2], the pIC50 with Plasmodium falciparum was under 6.00. In the case of `c1ccc(C23CCCC(c4ccccc4)(CC2)OO3)cc1` [Ar = Ph, X = CH2], the pIC50 in the assay on Plasmodium falciparum and in the assay on P. falciparum NF54 (setting [1]) was 7.05 each time.

With `O=S1(=O)CC2(c3ccccc3)CCC(c3ccccc3)(C1)OO2` [Ar = Ph, X = SO2], the pIC50 in the assay with Plasmodium falciparum was under 6.00. As for `c1ccc(C23CCC(c4ccccc4)(CC4(CCCCC4)C2)OO3)cc1` [Ar = Ph, X = drawing 40], the pIC50 in the assay with Plasmodium falciparum is under 6.00. With `Fc1ccc(C23CCCC(c4ccc(F)cc4)(CC2)OO3)cc1` [Ar = p-FPh, X = CH2], the pIC50 in the assay on Plasmodium falciparum is 7.42. Still for that read-out and setting: then `COc1ccc(C23CCCC(c4ccc(OC)cc4)(CC2)OO3)cc1` [Ar = p-MeOPh, X = CH2], with 7.21. Take `Fc1ccc(C23C=CC(c4ccc(F)cc4)(CC2)OO3)cc1` [R = F, R' = F]: in the assay on P. falciparum NF54 (setting [1]), the negative logarithm of the IC50 (pIC50) is 7.15. Still for that read-out and setting: under `Fc1ccc(C23C=CC(c4ccccc4)(CC2)OO3)cc1` (centres unmarked) [R = H, R' = F] stands 7.15. With `Cc1ccc(C23C=CC(c4ccc(C)cc4)(CC2)OO3)cc1` [R = Me, R' = Me], the pIC50 in the assay on P. falciparum NF54 (setting [1]) was 6.85. For the molecule `FC(F)(F)c1ccc(C23CCC(c4ccc(C(F)(F)F)cc4)(CC2)OO3)cc1` [Table 5, R = CF3], the negative-log IC50 (pIC50) in the assay with P. falciparum NF54 (setting [1]) is 7.09. Same read-out and setting: under `Fc1ccc(C23CCC(c4ccc(F)cc4)(CC2)OO3)cc1` [Table 5, R = F] stands 7.20. Still for that read-out and setting: then `c1ccc(C23CCC(c4ccccc4)(CC2)OO3)cc1` [Table 5, R = H], with 6.68; and `OCc1ccc(C23CCCC(c4ccccc4)(CC2)OO3)cc1` (centres unmarked) [Table 6, R = CH2 OH], with 7.09.

For `CC(C)(C)[Si](C)(C)OCc1ccc(C23CCCC(c4ccccc4)(CC2)OO3)cc1` (centres unmarked) [Table 6, R = CH2 OSiMe2 Bu-t], the pIC50 in the assay with P. falciparum NF54 (setting [2]) is 7.00. As to `Fc1ccc(C23CCCC(c4ccccc4)(CC2)OO3)cc1` (centres unmarked) [Table 6, R = F], the pIC50 in the assay on P. falciparum NF54 (setting [1]) was 7.38. The same measure, in the same setting: under `Oc1ccc(C23CCCC(c4ccccc4)(CC2)OO3)cc1` (centres unmarked) [Table 6, R = OH] stands under 5.60. On to `CC(C)(C)[Si](C)(C)Oc1ccc(C23CCCC(c4ccccc4)(CC2)OO3)cc1` (centres unmarked) [Table 6, R = OSiMe2 Bu-t], for which the pIC50 in the assay on P. falciparum NF54 (setting [2]) was 6.54. Take `C1=CC2(c3ccccc3)CC1(c1ccccc1)OO2` [n = 1]: the pIC50 with Plasmodium falciparum was 6.19.

Regarding `C1=CC2(c3ccccc3)CCC1(c1ccccc1)OO2` [n = 2], the pIC50 in the assay with Plasmodium falciparum is 6.82; in the assay on P. falciparum NF54 (setting [1]) it was 6.74. On to `C1=CC2(c3ccccc3)CCCCC1(c1ccccc1)OO2` [n = 4], for which, in the assay with Plasmodium falciparum, the pIC50 was 6.39.
